Measured values published in patent publication US10934439B2, “Additives for coating compositions and related methods” (Massachusetts Institute of Technology, priority 2017, dated 2021).

What was measured:
[1] = cited from earlier work
[2] = Electrochemical impedance spectroscopy (EIS) of galvanized steel in 3.5% NaCl with additives; conditions: for η, inhibitor efficiency from EIS: 3.5% NaCl, 25° C, pH 5.6, additive 10 mg/mL
Experimental: The electrochemical open-to-air cell (PTC1™ Paint Test Cell, Gamry Instruments, Warminster, Pa.) was utilized for the potentiodynamic polarization (Tafel tests) and electrochemical impedance spectroscopy experiments. […] Tafel tests (ASTM GS) were conducted using a Parstat PMC-2000 multichannel potentiostat equipped with Versa Studio 2.50.3 software (Princeton Applied Research, Oak Ridge, Tenn.). Tafel tests were modeled with a ZSIMPWIN™ software for complex nonlinear least square analyses fitting the circuit models of the electrode interface to the Nyquist amplitude of 10 mV at the open circuit potential in the frequency range of 100 kHz to 0.2 Hz. […] In a series of measurements with the corrosion inhibiting additives, a range of the additive concentrations was studied and the scan range was set from 150 mV below the open circuit voltage (OCV) to 200 mV more positive than the OCV, with three measurements for each condition. The range in these measurements was limited in order to minimize the cathodic polarization causing local pH changes.
EIS (FIGS. 17A and 17B) was applied to further reveal the effects of the corrosion inhibitors on the electrolyte-galvanized steel electrode interface and to complement the potentiodynamic polarization measurements. The qualitative information was obtained using fit analysis embedded into the software used to model the spectra, employing electrical equivalent circuits (EECs).
Elements of the EECs are described in the legend to FIGS. 17A and 17B. The corrosion resistance of the galvanized steel surface in the presence of the corrosion inhibitor represents the RCT+Rp sum. In the control measurement without the additive, the spectrum with one time constant EEC was used, wherein the electrode resistance is represented by RCT.
EIS measurements enabled estimation of the corrosion inhibition efficiency: […]

[3] = Potentiodynamic polarization (Tafel tests) of galvanized steel in 3.5% NaCl with additives; conditions: for Corrosion rate / Icorr (corrosion current density) / IE, inhibitor efficiency from Tafel: 25° C; for formation of white rust on the steel working electrode: millimolar or higher concentrations in 3.5% NaCl; for corrosion inhibitor efficiency compared with other additives: pH 5.3, equivalent concentrations
Excerpt: The electrochemical open-to-air cell (PTC1™ Paint Test Cell, Gamry Instruments, Warminster, Pa.) was utilized for the potentiodynamic polarization (Tafel tests) and electrochemical impedance spectroscopy experiments. The electrochemical cell was composed of working electrode made of galvanized steel (zinc-galvanized sheets of type B carbon steel, ASTM A653, total thickness 0.305 mm, working area 2.2 cm^2 or 15.2 cm^2, McMaster Carr Supply Co., Robbinsvill, N.J.), reference Ag/AgCl electrode, and Pt wire auxiliary electrode (BASK) Corp., West Lafayette, Ind.). Prior to the immersion in the electrolyte (3.5% NaCl, pH adjusted to 5.25-5.3, 40 mL), the working electrodes were washed by acetone, ethanol, dried by nitrogen flow and polished with P1200 grit.^24 The working electrode was immersed into electrolyte containing the tested compound at a given concentration with desired pH at 25° C. for 60 min prior to each measurement. […] The carbon steel used herein was coated with the average minimum coating thickness per ASTM A653 being 2.0 mils (0.0508 mm) per surface. Tafel tests (ASTM GS) were conducted using a Parstat PMC-2000 multichannel potentiostat equipped with Versa Studio 2.50.3 software (Princeton Applied Research, Oak Ridge, Tenn.). Tafel tests were modeled with a ZSIMPWIN™ software for complex nonlinear least square analyses fitting the circuit models of the electrode interface to the Nyquist amplitude of 10 mV at the open circuit potential in the frequency range of 100 kHz to 0.2 Hz. Parameters for Tafel tests were as follows: initial potential, −1.25 V (vs reference); final potential, −0.45 V; scan properties: step height, 0.5 mV, step time, 2 s. In a series of measurements with the corrosion inhibiting additives, a range of the additive concentrations was studied and the scan range was set from 150 mV below the open circuit voltage (OCV) to 200 mV more positive than the OCV, with three measurements for each condition. The range in these measurements was limited in order to minimize the cathodic polarization causing local pH changes.
In the vicinity of Ecorr both currents are present in the specimen, but experimentally it is possible to measure only the net current. The net current has a single measurable polarity, either positive or negative. At Ecorr the net measured current is exactly zero. The corrosion current (icorr) is expressed as (for definitions, see FIG. 13):
[formula] where E.W. is the equivalent weight of the corroding species, g. In this case, the corroding species is Zn, so E.W.=32.7 g. Icorr, is the corrosion current density in μA/cm^2, and d is the density of the corroding species. Density of zinc is 7.140 g/cm^3.
From the icorr values, inhibitor efficiencies (IE, %) were calculated as (equation (1)): […]

[4] = cited from earlier work; remark: listed apart in the source
[5] = Solubility / dissolution testing
[6] = 44.7 mM, electrolyte containing 0.0165 wt % NaCl (pH not stated); cited from earlier work
[7] = Hygroscopicity on standing in an open jar at 80% relative humidity; assay type: physicochemical; conditions: converted to pasty solid
Experimental: The crystals were hygroscopic and converted to caramel-like, pasty solid on standing in an open jar at 80% relative humidity. […] Thermogravimetric analysis (TGA) and simultaneous differential scanning calorimetry (DSC) were conducted using a Q600 TGA/DSC instrument (TA Instruments, Inc.). Samples were subjected to heating scans (10 or 20° C./min) in a temperature ramp mode under nitrogen atmosphere.

[8] = 3.5% NaCl, pH 2.1, [TDPA] 94.8 meq/L
[9] = 3.5% NaCl, pH 5.3, [TDPA] 47.4 meq/L
[10] = 3.5% NaCl, pH 5.3, [TDPA] 94.8 meq/L
[11] = 3.5% NaCl, pH 5.6, additive 10 mg/mL
[12] = 3.5% NaCl, pH 5.3, [Mg2+] 49.8, [TDPA] 49.8 meq/L
[13] = 3.5% NaCl, pH 5.3, [Mg2+] 71.8, [Ac−] 144, [TDPA] 0 meq/L
[14] = 3.5% NaCl, pH 5.3, [Mg2+] 167, [TDPA] 33.5 meq/L
[15] = 3.5% NaCl, pH 5.3, [Mg2+] 9.93, [Ac−] 9.93, [TDPA] 15.9 meq/L
[16] = 3.5% NaCl, pH 5.3, [Mg2+] 41.9, [Ac−] 41.9, [TDPA] 67.1 meq/L
[17] = 3.5% NaCl, pH 5.3, [Mg2+] 62.9, [Ac−] 62.9, [TDPA] 101 meq/L

O=C(O)CCSCCC(=O)O [TDPA, 3,3′-thiodipropionic acid, reference compound]
pKa [1]: 4.11
η, inhibitor efficiency from EIS [2]: 81%
Corrosion rate [3, 8]: 474 mpy
Icorr (corrosion current density) [3, 8]: 796 μA/cm^2
Corrosion rate [3, 9]: 26.5 mpy
Icorr (corrosion current density) [3, 9]: 44.5 μA/cm^2
Corrosion rate [3, 10]: 16.9 mpy
Icorr (corrosion current density) [3, 10]: 28.4 μA/cm^2
Corrosion rate [3, 11]: 2.47 mpy
IE, inhibitor efficiency from Tafel [3, 11]: 84%
Icorr (corrosion current density) [3, 11]: 4.15 μA/cm^2
formation of white rust on the steel working electrode [3]: visibly reduced the formation of white rust
solubility in solvents [4]: soluble in water, acetone, and alcohol

magnesium thiodipropionate [MgTDPA1:1]
increase in total resistance Ri=RCT+Rp versus Ro=RCT without inhibitor ([2]; 10 mg/mL in 3.5% NaCl, pH 5.6, 25° C): 283 fold
η, inhibitor efficiency from EIS [2]: 99%
effect on Icorr in Tafel plots (FIG. 16) ([3]; 10 mg/mL in 3.5% NaCl, pH 5.6, versus no additive and other additives): reduced the Icorr values the most
breakdown potentials (instability of the oxide film, pitting corrosion) ([3]; 1-2 mM concentrations and above in the 3.5% NaCl electrolyte): increased
Corrosion rate [3, 12]: 21.1 mpy
Icorr (corrosion current density) [3, 12]: 35.5 μA/cm^2
Corrosion rate [3, 11]: 1.07 mpy
IE, inhibitor efficiency from Tafel [3, 11]: 93%
Icorr (corrosion current density) [3, 11]: 1.79 μA/cm^2
corrosion inhibitor effectiveness compared with controls (data in Table 1) ([3]; galvanized steel, 3.5% NaCl): more effective corrosion inhibitor for galvanized steel than either TDPA or MgAc2
formation of white rust on the steel working electrode [3]: visibly reduced the formation of white rust

CC(=O)[O-].CC(=O)[O-].O.O.O.O.[Mg+2] [MgAc2, magnesium acetate tetrahydrate, reference compound]
η, inhibitor efficiency from EIS [2]: 41%
Corrosion rate [3, 13]: 37.0 mpy
Icorr (corrosion current density) [3, 13]: 62.1 μA/cm^2
Corrosion rate [3, 11]: 8.03 mpy
IE, inhibitor efficiency from Tafel [3, 11]: 48%
Icorr (corrosion current density) [3, 11]: 13.5 μA/cm^2

magnesium thiodipropionate [MgTDPA5:1]
solubility in the electrolyte ([5]; 3.5% NaCl electrolyte, yielded a suspension): only fractionally soluble
η, inhibitor efficiency from EIS [2]: 72%
Corrosion rate [3, 14]: 50.7 mpy
Icorr (corrosion current density) [3, 14]: 85.1 μA/cm^2
Corrosion rate [3, 11]: 4.65 mpy
IE, inhibitor efficiency from Tafel [3, 11]: 69%
Icorr (corrosion current density) [3, 11]: 7.82 μA/cm^2
corrosion inhibitor efficiency compared with other additives ([3]; 3.5% NaCl): quite effective in reducing the corrosion rate

CCCCCCCCCC(=O)O [decanoic acid]
inhibition efficiency η [6]: 83.5%

magnesium acetate thiodipropionate [MgAcTDPA]
hygroscopicity of the crystals [7]: hygroscopic
concentration on dissolution in warm ethanol ([5]; warm ethanol): at least 10 wt %
η, inhibitor efficiency from EIS [2]: 80%
Corrosion rate [3, 15]: 29.4 mpy
Icorr (corrosion current density) [3, 15]: 49.3 μA/cm^2
Corrosion rate [3, 16]: 7.9 mpy
Icorr (corrosion current density) [3, 16]: 13.3 μA/cm^2
Corrosion rate [3, 17]: 1.85 mpy
Icorr (corrosion current density) [3, 17]: 3.12 μA/cm^2
Corrosion rate [3, 11]: 2.41 mpy
IE, inhibitor efficiency from Tafel [3, 11]: 84%
Icorr (corrosion current density) [3, 11]: 4.06 μA/cm^2
corrosion inhibitor efficiency compared with other additives ([3]; 3.5% NaCl): the most efficient corrosion inhibitor
formation of white rust on the steel working electrode [3]: visibly reduced the formation of white rust
